US12313625B2, “Living tissue model device, vascular wall model, vascular wall model device and method of evaluating test substance” (FUJIFILM CORPORATION, priority 2017, dated 2025)

Assays:
[1] = test system: VEC/SMC-HCM insert (HUVEC / HUASMC vascular wall model); settings: histamine 10 μM or 100 μM, incubated 120 minutes, FIG. 10
Protocol: • (1) 2 mg of FITC-dextran 70 (70 kDa, Sigma) was dissolved in 8 ml of HBSS (+) (084-08965, Wako), to prepare a 250 μg/ml FITC-dextran 70 solution. The FITC-dextran 70 solution was stored in a light-shielded condition. […] The 96-well black plate was light-shielded by being covered with an aluminum sheet. • (9) The fluorescent intensity of the FITC in each sample liquid was measured using a plate reader (ENSPIRE, PerkinElmer) with an excitation wavelength (Ex) of 485 nm and an emission wavelength (Em) of 530 nm.

[2] = test system: cell layered body of rat vascular endothelial cells and rat smooth muscle cells on HCM; assay: Evaluation of response to physiologically active substance (thrombin) by microscopy of the cell layered body; format: cell-based; settings: 37° C., 30 minutes
Protocol: • (1) 0.1 mg (100 units) of thrombin (#T7009-100UN, Sigma) was dissolved in 100 μl of physiological saline to prepare a thrombin solution at a concentration of 1000 U/mL. […] The micrograph of the cell layered body is shown in FIG. 12, which is a superposed image of red fluorescence from VE-cadherin and green fluorescence from α-smooth muscle actin.

NCCc1c[nH]cn1 [histamine, Histamine]
FITC-dextran 70 permeability [1]: increase in FITC-dextran 70 permeability depending on the concentration of histamine

thrombin
cell contraction observed under a microscope ([2]; 25 U/mL or 100 U/mL thrombin, FIG. 12): cell contraction due to activation of actin stress fibers caused by the addition of thrombin was observed | concentration dependence of cell contraction ([2]; 25 U/mL vs 100 U/mL thrombin): Higher thrombin concentrations caused stronger cell contractions
